This assay in a line: In vitro binding affinity for PBR (peripheral benzodiazepine receptor) in monkey brain.

pKi: −log10 of the molar value.

In general, pKi refers to −log10 of the Ki, conventionally taken in molar units. The compound `COc1ccc(OC)c(CN(C(C)=O)c2cc(F)ccc2Oc2ccccc2)c1` showed a pKi of 9.73.
